Experimental data published in US20160113895A1, “Novel Use of Adapalene in Treating Esophageal Cancer and Gastrointestinal Stromal Tumor” (Biodelight Biotech Inc., priority 2013, published 2016).

Legend:
[1] = molecular target: T1, recombinant wild type human EGFR kinase domain (Homo sapiens, UniProt P00533); experiment: Radiometric protein kinase enzymatic assay; assay type: biochemical; details: text value (FIG. 1)
T1 construct: A recombinant wild type human EGFR kinase domain expressed in Sf9 insect cells; GST; made in house; host or cells: Sf9 insect cells
T1 sequence (P00533 712-979 limits assumed): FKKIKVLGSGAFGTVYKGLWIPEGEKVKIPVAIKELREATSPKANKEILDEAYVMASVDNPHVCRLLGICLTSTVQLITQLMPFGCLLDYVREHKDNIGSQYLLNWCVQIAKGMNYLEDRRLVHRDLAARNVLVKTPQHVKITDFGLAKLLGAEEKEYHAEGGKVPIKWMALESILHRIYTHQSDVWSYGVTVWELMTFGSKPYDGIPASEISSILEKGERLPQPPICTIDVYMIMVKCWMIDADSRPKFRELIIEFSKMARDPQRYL
From the text: Except Tarceva® or Erlotinib which was purchased from LC Laboratories, all the screened compounds were purchased from Sigma-Aldrich. A recombinant wild type human EGFR kinase domain expressed in Sf9 insect cells as a GST-fusion protein was used in the enzymatic assay. The recombinant protein was purified by a GSH-affinity column and the purity of the protein was examined by SDS-PAGE/Coomassie staining and the identity was checked by mass spectroscopy. A radiometric protein kinase assay was used for measuring the kinase activity of the EGFR protein kinase. All the assays were performed in 96-well FlashPlates™ from PerkinElmer (Boston, Mass., USA) in a 50 µL, reaction volume. […] The reaction cocktails were incubated at 30° C. for 60 minutes. […] Incorporation of ^33Pi was determined with a microplate scintillation counter. […]
The median value of the counts in column 1 (n=8) of each assay plate was defined as “low control”. This value reflects unspecific binding of radioactivity to the plate in the absence of a protein kinase but in the presence of the substrate. […] The residual activity (in %) for each well of a particular plate was calculated by using the following formula: […]
The residual activities for each concentration and the drug IC50 values were calculated using GraphPad Prism software. […]

[2] = tested on: four NSCLC cell lines (A549, H1299, H460, HCC827); experiment: 2D cell proliferation assay, summary over the NSCLC cell lines; assay type: cell-based; details: Homo sapiens, span over the four NSCLC cell lines
Procedure: There were eight concentrations used for each drug for determining its IC50. […] Actinomycin D was a chemotherapeutic drug simply used as a quality control for all the experiments.
In the 2D cell proliferation assay, cells were cultured in DMEM containing 10% FCS and Penicillin/Streptomycin. For the assays, cells were seeded in 150 μL medium on a 96-well cell culture plate and incubated at 37° C. overnight before the compounds were added. […] A day after cell seeding, 10 μL of prediluted compounds was added to the cells (1:16 dilution). Treatment of cells with 0.1% DMSO or 1% DMSO (for the two top concentrations of nsl-8) and 1.0E-05 M Staurosporine was served as high control (100% viability) and low control (0% viability), respectively. Measurement of the impact of compounds on cell viability was performed as follows: 5000 cells (A549 and HCC827) or 2500 cells (H1299 and H460) were seeded in the inner wells of 96-well-plates in 150 μL complete medium. Next day, compounds were added to the medium to reach the final concentration and then incubated at 37° C. in 5% or 10% CO2 depending on the medium for 72 h.
Raw data were converted into percent cell viability relative to high control (solvent 0.1% DMSO or 1% DMSO for the two top concentrations of drug nsl-8) and low control (1.0E-05 M Staurosporine), which were set to 100% and 0%, respectively.

HCC827 implanted tumors = experiment: Subcutaneous HCC827 xenograft model, groups 3a-3c, o.p.; details: for Tumor inhibition rate (%): HCC827, o.p. once daily, NSL-8 70 mpk, Tarceva 20 mpk
Procedure: The antitumor efficacy of the drug lead nsl-8 searched was studied using the subcutaneous xenografted A549 and HCC827 lung cancer tumor models in vivo. […] Mice were maintained in individual ventilated cages (IVC, max. 4 mice/cage) at constant temperature and humidity. Animal weights were determined three times (Monday, Wednesday and Friday) for groups 1a and 1b or two times (Monday and Thursday) for groups 2a-2c and 3a-3c animals. Animal behaviour was monitored daily.
On day 0, either 2×10^6 A549 or 2×10^6 HCC827 tumor cells in 100 μL PBS were implanted into the subcutaneous space of the left flank of all corresponding BALB/c nude and SCID mice, respectively. In the following, tumor sizes were determined by caliper measurement. Tumor sizes were calculated according to the formula W^2×Lg/2 (Lg=length and W=the perpendicular width of the tumor, L>W). On day 48 or 30, after mean tumor volumes had reached approx. 100 mm^3, the corresponding tumor-bearing animals were randomized into 2 groups of 8 (A549 model: groups 1a and 1b) or 10 animals (A549 model: groups 2a and 2b) according to tumor sizes. On day 24 or 28, after mean tumor volumes had reached approx. 100 mm^3, the corresponding tumor-bearing animals were randomized into 2 groups of 10 animals (HCC827 model: groups 3a and 3b) according to tumor sizes. […] The percentage of tumor growth inhibition (TGI) was calculated using the following formula: […]
where T and C represent the mean tumor volume of the treatment and the control group, respectively.
The solution was aliquoted into several 15 ml sterile centrifuge tubes in 650 μl quantity per tube and then stored frozen at −80° C. until use. […] Animals of group 1b received 40 mg/kg nsl-8 dosage solution once daily through i.p. route on days 48-52 and 62-66, while those of groups 2b and 3b received 70 mg/kg nsl-8 dosage solution once daily through o.p. route on days 1-14 (group 2b) and days 1-14 (group 3b), respectively (Table 4).
Groups 1a and 1b (A549 model) were terminated on day 69, while groups 2a-2c (A549 model) and 3a-3c (HCC827 model) were terminated on day 15. At necropsy, animals were killed by cervical dislocation. Primary tumor weights and volumes were determined. The tumor volume and weight were analysed using descriptive data analysis (Mean, SEM, Median). Statistical analysis of efficacy data was performed using the unpaired t-test. All the data analyses were performed using GraphPad Prism 5 from GraphPad Software, Inc., San Diego, USA.
The serum level of blood urea nitrogen (BUN) was measured for assessing the renal function while those of alanine aminotransferase (ALT) and aspartate aminotransferase (AST) were measured using Ektachem DT system (Johnson & Johnson Clinical Diagnostics) for assessing the liver function. The EDTA treated anticoagulated blood samples were also collected for making a complete peripheral blood count by using a Hematology Analyzer (Sysmex, XT-1800i).
For this study, 0.161 ml nsl-8 stock solution made in DMSO was mixed with 1.339 ml 0.9% w/v saline so that the volume of a final dosage solution prepared to feed an animal was 1.5 ml and containing 10% DMSO. Therefore, both administration routes and vehicles used in treating groups 2a-2b and 3a-3b animals were quite different from that used in treating groups 1a-1b animals.

COc1ccc(-c2ccc3cc(C(=O)O)ccc3c2)cc1C12CC3CC(CC(C3)C1)C2 [nsl-8, 6-[3-(1-adamantyl)-4-methoxyphenyl]-2-naphthalenecarboxylic acid]
IC50 [1]: 515 nM
IC50 [2]: 2000 to 11000 nM
Tumor inhibition rate (%) (HCC827 implanted tumors; Day 0): 0%
Tumor inhibition rate (%) (HCC827 implanted tumors; Day 3): 16.6%
Tumor inhibition rate (%) (HCC827 implanted tumors; Day 7): 13.8%
Tumor inhibition rate (%) (HCC827 implanted tumors; Day 10): 22.4%
Tumor inhibition rate (%) (HCC827 implanted tumors; Day 14): 28.7%
counts of neutrophils and lymphocytes (HCC827 implanted tumors; mouse, in vivo): increase
counts of red blood cells (HCC827 implanted tumors; mouse, in vivo): decrease
serum levels of BUN, ALT, and AST among treatment groups (HCC827 implanted tumors; mouse, in vivo): no significant difference
total white blood cells and platelets counted versus vehicle (HCC827 implanted tumors; mouse, in vivo): no significant difference
